Measurements from paper PMC5876397, “An advanced human in vitro co-culture model for translocation studies across the placental barrier” (Scientific Reports, 2018).
Read-outs that look alike come from different tables or passages of the source. Blank lines part the entries; values can stand above or below the molecule they belong to.

Tests used:
HPEC-A2 monolayer [1] = test system: HPEC-A2 monolayer
Experimental: (§2) Polycarbonate Transwell® inserts (pore size 3.0 µm, growth area 1.12 cm^2, apical volume 0.5 ml, basolateral volume 1.5 ml; Corning®, Sigma-Aldrich, Buchs, Switzerland) were pre-coated with 50 µg/ml human placental collagen IV (Sigma-Aldrich, Buchs, Switzerland) for 1 h at 37 °C/5% CO2 (200 µl on both sides). Then the membrane was washed twice with phosphate buffered saline (PBS, pH 7.4, Sigma-Aldrich, Steinheim, Germany). Translocation experiments were done either with BeWo or HPEC monocultures or with both cell lines co-cultivated on a membrane. For the BeWo monolayer 1.5 × 10^5 cells in 500 µl EM were added apically and 1.5 ml EM basolaterally. For the HPEC monolayer the cells were seeded on the basolateral side of the membrane (Fig. 5a–d). Therefore, the reversed insert was placed in a 6-well plate (TPP, Faust AG, Schaffhausen, Switzerland), which had been filled with 1 ml sterile PBS to ensure a humid surrounding. Small rubber spaces (1.5 mm thick) were placed in each corner of the plate in order to slightly lift the lid to prevent direct contact of the lid with the membrane. This enables the adhesion of the drop to the lid, thereby avoiding medium loss as well as cell aggregation in the center. 1 × 10^5 HPECs in 200 µl EM were added to the membrane and the lid was immediately placed on the plate. After 2 h of incubation (37 °C, 5% CO2), the insert was placed into a 12-well plate with fresh EM (0.5 ml apical and 1.5 ml basolateral). For the co-culture, the steps described above for the monocultures were done, starting with the HPEC layer. The inserts were cultivated for 3 d at 37 °C/5% CO2 in EM (medium change after 48 h) under static conditions.
(§3) Translocation studies were performed with co-cultured membranes as well as separate monolayers (BeWo on the apical or HPEC on the basolateral side of the insert) cultivated for 3 d as described above. […] At each time point (0, 0.25, 2, 4, 6, 8, 24 h) samples (50 µl) were taken from the basolateral chamber and renewed with fresh medium. […] Only differences were the use of EM with phenol red and sample volumes of 200 µl (basolateral) at each time point (0, 0.25, 1, 2, 6 h). Analysis of these samples was done by high performance liquid chromatography (HPLC). These studies were conducted in static and shaken (horizontal shaking at 50 rpm) conditions to determine the potential influence of simple shaking on transfer rates.
(§4) The mass transported (ΔQn) was calculated for each time point and corrected for the mass taken before:1 ΔQn=Cn∗Vw+∑j=1n−1Vs∗Cj with the concentration measured at time tn (Cn), the volume of the well (Vw, 1.5 ml) and the sample volume (Vs). The sum of the amount removed during previous sampling is added respectively (Σ). Results were then expressed as basolateral amount of the initial dose (ID) in %. […] The permeability factor was calculated with the following two equations:2 P=ΔQ/Δt/A∗C0 3 Pe=1/(1/Pc−1/Pm) where the permeability factor (P; cm s^−1) is first calculated as the quotient of the amount transported (ΔQ; mg) at a specific time point (Δt; sec) divided by the product of the membrane surface area (cm^2) and the initial concentration of the substance (C0; mg cm^−3). Pe describes the apparent permeability factor corrected for the influence of the membrane. Therefore, the permeability value across the membrane Pm was subtracted from the permeability across the cells (Pc; monolayer or co-culture).

[2] = test system: BeWo b30 / HPEC-A2 co-culture; experiment: Sodium fluorescein (Na-F) exclusion assay, co-culture; format: in vitro ADME, human; details: day 3 of cultivation, 5 µM Na-F, 3 h incubation
Experimental: (§1) To determine barrier formation, exclusion of Na-F was determined daily for 4 d. 0.5 ml of 5 µM Na-F (Sigma-Aldrich, Buchs, Switzerland) was added to the apical chamber and 1.5 ml EM (without phenol red) to the basal chamber.

HPEC-A2 monolayer [3] = experiment: Sodium fluorescein (Na-F) exclusion assay, HPEC monoculture; format: in vitro ADME, human; details: after 3 d of cultivation, 5 µM Na-F, 3 h incubation
Experimental: as §1

BeWo b30 monolayer [4] = test system: BeWo b30 monolayer
Experimental: as §2, §3, §4

BeWo b30 monolayer [5] = experiment: Sodium fluorescein (Na-F) exclusion assay, BeWo monoculture; format: in vitro ADME, human; details: day 3 of cultivation, 5 µM Na-F, 3 h incubation
Experimental: as §1

[6] = test system: BeWo b30 / HPEC-A2 co-culture
Experimental: as §2, §3, §4

BeWo cells = details: cited from earlier work
BeWo monolayer = details: cited from earlier work
in vitro [7] = details: not told, Permeability factor P2h
Experimental: as §2
(§5) Translocation studies were performed with co-cultured membranes as well as separate monolayers (BeWo on the apical or HPEC on the basolateral side of the insert) cultivated for 3 d as described above. […] At each time point (0, 0.25, 2, 4, 6, 8, 24 h) samples (50 µl) were taken from the basolateral chamber and renewed with fresh medium. […]
(§6) The mass transported (ΔQn) was calculated for each time point and corrected for the mass taken before:1 ΔQn=Cn∗Vw+∑j=1n−1Vs∗Cj with the concentration measured at time tn (Cn), the volume of the well (Vw, 1.5 ml) and the sample volume (Vs). […] Results were then expressed as basolateral amount of the initial dose (ID) in %. […] The permeability factor was calculated with the following two equations:2 P=ΔQ/Δt/A∗C0 3 Pe=1/(1/Pc−1/Pm) where the permeability factor (P; cm s^−1) is first calculated as the quotient of the amount transported (ΔQ; mg) at a specific time point (Δt; sec) divided by the product of the membrane surface area (cm^2) and the initial concentration of the substance (C0; mg cm^−3). […]

in vitro [8] = details: human
Experimental: as §2, §3, §4

[9] = not told, 2 h
Experimental: as §2, §5, §6

[10] = Translocation across control (empty collagen-coated) insert membrane; details: not told, Permeability factor P2h
Experimental: as §2, §5, §6

[11] = Translocation study across BeWo/HPEC co-culture (placental barrier model); details: human
Experimental: as §2, §3, §4

[12] = test system: BeWo b30 / HPEC-A2 co-culture; experiment: as above; details: after 6 h, static, 100 µM
Experimental: as §2, §3, §4

BeWo b30 monolayer [13] = experiment: Translocation study across BeWo monolayer on collagen-coated 3 µm polycarbonate Transwell insert; details: BeWo layer, after 6 h, static, 100 µM
Experimental: as §2, §3, §4

[14] = as above; details: human; for Papp at 2 h, 100 µM: BeWo monolayer
Experimental: as §2, §3, §4

HPEC-A2 monolayer [15] = experiment: Translocation study across HPEC monolayer on collagen-coated 3 µm polycarbonate Transwell insert; details: after 6 h, static, 100 µM
Experimental: as §2, §3, §4

[16] = as above; details: human
Experimental: as §2, §3, §4

[17] = Apparent permeability factor Pe, 2h, shaken (50 rpm), median ± mad
[18] = Apparent permeability factor Pe, 2h, static, median ± mad
[19] = Permeability factor P2h, shaken, without subtraction of Pmembrane
[20] = Permeability factor P2h, static, without subtraction of Pmembrane

SMILES: O=C([O-])c1ccccc1-c1c2ccc(=O)cc-2oc2cc([O-])ccc12.[Na+].[Na+] [Na-F, sodium fluorescein]
- Transport, basolateral amount of the initial dose (ID) (HPEC-A2 monolayer [1]): 77.0%
- Na-F translocation, basolateral amount of ID [2]: 0.5 % of ID
- Na-F translocation, basolateral amount of ID (HPEC-A2 monolayer [3]): 14.0 % of ID
- Permeability factor P2h (BeWo b30 monolayer [4]): 2.5 ± 0.4 x 10-6 cm s-1
- Transport, basolateral amount of the initial dose (ID) (BeWo b30 monolayer [4]): 34.5%
- Na-F translocation, basolateral amount of ID (BeWo b30 monolayer [5]): 0.5 % of ID
- Apparent permeability factor Pe, 2h [6]: 1.1 ± 1.1 × 10^−6 cm s^−1
- Permeability factor P2h [6]: 1.0 ± 1.0 x 10-6 cm s-1
- Transport, basolateral amount of the initial dose (ID) [6]: 35.1%
- Viability of BeWo cells (BeWo cells; previous publications ref 47, 64): did not affect the viability

SMILES: Cc1cc(=O)n(-c2ccccc2)n1C [antipyrine]
- Permeability Pe,1h (BeWo monolayer): 58 ×10⁻⁶ cm/s
- Apparent permeability factor Pe, 2h (HPEC-A2 monolayer [1]; human, 2 h, 100 µM): 76.5 ± 7.0 × 10^−6 cm s^−1
- Permeability factor P2h (HPEC-A2 monolayer [1]; human, 2 h, 100 µM): 24.1 ± 1.0
- Transport, basolateral amount of the initial dose (ID) (HPEC-A2 monolayer [1]; human, 6 h, 100 µM): 71.4%
- Papp at 2 h (in vitro [7]): 50 ± 3.4 ×10⁻⁶ cm/s
- Apparent permeability factor Pe, 2h (BeWo b30 monolayer [4]; human, 2 h, 100 µM): 106.4 ± 8.2 × 10^−6 cm s^−1
- Permeability factor P2h (BeWo b30 monolayer [4]; human, 2 h, 100 µM): 26.5 ± 1.1
- Transport, basolateral amount of the initial dose (ID) (BeWo b30 monolayer [4]; human, 6 h, 100 µM): 74.7%
- Papp at 1 h, 100 µM (in vitro [8]; Permeability P1h): 36.2 ×10⁻⁶ cm/s
- Papp at 1 h, 100 µM (in vitro [8]; Permeability Pe, 1h): 79.3 ×10⁻⁶ cm/s
- Permeability factor P2h [9]: 35.3 ± 0.7
- Transport, basolateral amount of the initial dose (ID) ([6]; human, 6 h, 100 µM): 80.9%
- Viability of BeWo cells (BeWo cells): did not affect the viability

- Papp at 2 h ([10]; shaken): 39.6 ± 6.5 ×10⁻⁶ cm/s
- Papp at 2 h ([10]; static, median ± mad): 36.4 ± 1.1 ×10⁻⁶ cm/s
- Papp at 2 h, 100 µM [11, 17]: 30.7 ± 1.2 ×10⁻⁶ cm/s
- Papp at 2 h, 100 µM [11, 18]: 26.7 ± 0.2 ×10⁻⁶ cm/s
- Papp at 2 h, 100 µM [11, 19]: 17.3 ± 0.8 ×10⁻⁶ cm/s
- Papp at 2 h, 100 µM [11, 20]: 15.3 ± 1.1 ×10⁻⁶ cm/s
- Transport, basolateral amount of the initial dose (ID) [12]: 41.5%
- Transport, basolateral amount of the initial dose (ID) (BeWo b30 monolayer [13]): 45.9%
- Papp at 2 h, 100 µM [14, 17]: 37.2 ± 11.9 ×10⁻⁶ cm/s
- Papp at 2 h, 100 µM ([14]; Apparent permeability factor Pe, 2h, static, apical to basolateral, median ± mad): 39.5 ± 8 ×10⁻⁶ cm/s
- Papp at 1 h, 100 µM ([14]; Permeability P1h, this study, static, compared with BeWo monolayer literature values): 19.9 ×10⁻⁶ cm/s
- Papp at 2 h, 100 µM [14, 19]: 21.7 ± 0.3 ×10⁻⁶ cm/s
- Papp at 2 h, 100 µM [14, 20]: 19 ± 3.5 ×10⁻⁶ cm/s
- Transport, basolateral amount of the initial dose (ID) (HPEC-A2 monolayer [15]): 42.9%
- Papp at 2 h, 100 µM [16, 17]: 22.7 ± 0.4 ×10⁻⁶ cm/s
- Papp at 2 h, 100 µM [16, 18]: 19 ± 0.1 ×10⁻⁶ cm/s
- Papp at 2 h, 100 µM [16, 19]: 14.6 ± 1.2 ×10⁻⁶ cm/s
- Papp at 2 h, 100 µM [16, 20]: 12.6 ± 0.6 ×10⁻⁶ cm/s
SMILES: COc1ccc2c(c1)c(CC(=O)O)c(C)n2C(=O)c1ccc(Cl)cc1 [indomethacin]
- Permeability P1h (BeWo monolayer; BeWo monoculture transfer model, static conditions, Li et al. ref 47): 23.2 ×10⁻⁶ cm/s
